The values below come from patent publication US20240279214A1, “ALPHA4 BETA7 INEGRIN ANTAGONISTS AND USES THEREOF” (XinThera, Inc., priority 2022, published 2024).

Each structure is given as a SMILES string.

In this assay the target is T1, a4b7 integrin interaction with MadCAM-1 (Homo sapiens, UniProt P13612+P26010).
T1 construct: capture of a4b7 integrin expressing cells, RPMI8866; endogenous in cells; host or cells: RPMI8866
T1 sequence (P13612 34-1032): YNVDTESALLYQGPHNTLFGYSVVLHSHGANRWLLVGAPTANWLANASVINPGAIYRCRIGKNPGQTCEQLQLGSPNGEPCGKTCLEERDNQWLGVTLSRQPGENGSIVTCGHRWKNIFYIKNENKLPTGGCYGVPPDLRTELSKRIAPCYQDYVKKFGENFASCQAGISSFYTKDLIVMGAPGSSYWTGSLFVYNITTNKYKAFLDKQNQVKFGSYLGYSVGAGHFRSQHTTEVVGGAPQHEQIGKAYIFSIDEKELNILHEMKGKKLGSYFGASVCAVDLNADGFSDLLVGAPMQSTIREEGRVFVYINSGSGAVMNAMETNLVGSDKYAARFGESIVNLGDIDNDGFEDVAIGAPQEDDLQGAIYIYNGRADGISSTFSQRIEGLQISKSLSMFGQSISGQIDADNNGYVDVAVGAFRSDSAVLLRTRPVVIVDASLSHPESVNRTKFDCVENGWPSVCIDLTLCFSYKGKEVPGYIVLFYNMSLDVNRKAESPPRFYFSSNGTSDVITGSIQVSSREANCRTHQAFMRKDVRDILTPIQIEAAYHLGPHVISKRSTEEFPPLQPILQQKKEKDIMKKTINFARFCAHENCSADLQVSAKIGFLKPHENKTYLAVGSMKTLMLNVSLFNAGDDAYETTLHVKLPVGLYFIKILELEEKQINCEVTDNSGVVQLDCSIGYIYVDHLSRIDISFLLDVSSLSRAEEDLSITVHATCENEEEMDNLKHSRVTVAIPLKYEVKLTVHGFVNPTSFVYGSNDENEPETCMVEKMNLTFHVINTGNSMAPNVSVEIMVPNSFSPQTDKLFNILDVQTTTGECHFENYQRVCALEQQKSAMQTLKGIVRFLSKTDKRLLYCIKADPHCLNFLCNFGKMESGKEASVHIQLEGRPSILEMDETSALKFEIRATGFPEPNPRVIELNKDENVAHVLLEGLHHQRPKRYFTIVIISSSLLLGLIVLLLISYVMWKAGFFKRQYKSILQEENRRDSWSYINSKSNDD
T1 sequence (P26010 20-798): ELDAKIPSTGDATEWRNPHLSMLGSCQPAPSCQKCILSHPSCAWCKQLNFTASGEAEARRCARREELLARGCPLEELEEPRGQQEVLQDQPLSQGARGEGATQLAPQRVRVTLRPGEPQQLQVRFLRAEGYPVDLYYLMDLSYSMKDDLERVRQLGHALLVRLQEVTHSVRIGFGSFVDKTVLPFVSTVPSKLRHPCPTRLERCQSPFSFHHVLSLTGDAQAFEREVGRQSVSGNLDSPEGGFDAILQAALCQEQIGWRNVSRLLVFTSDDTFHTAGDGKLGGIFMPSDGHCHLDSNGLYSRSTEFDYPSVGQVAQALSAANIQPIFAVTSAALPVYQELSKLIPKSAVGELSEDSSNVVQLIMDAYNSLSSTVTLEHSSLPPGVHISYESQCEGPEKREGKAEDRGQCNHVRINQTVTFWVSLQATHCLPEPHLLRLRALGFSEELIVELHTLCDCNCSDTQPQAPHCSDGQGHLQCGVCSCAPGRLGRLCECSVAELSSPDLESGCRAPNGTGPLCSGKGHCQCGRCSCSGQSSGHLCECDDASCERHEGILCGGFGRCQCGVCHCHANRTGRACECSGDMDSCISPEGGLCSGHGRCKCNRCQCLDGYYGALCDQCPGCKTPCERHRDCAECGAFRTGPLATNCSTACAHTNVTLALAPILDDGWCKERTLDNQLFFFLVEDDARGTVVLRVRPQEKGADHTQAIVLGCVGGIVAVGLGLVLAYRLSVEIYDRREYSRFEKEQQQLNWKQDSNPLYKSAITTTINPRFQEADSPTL
Briefly: a4b7 Cell Capture Assay (RPMI8866 cells on MAdCAM-1 Fc coated plates). Type of assay: cell-based. The conditions noted are these: 50% human serum, 1 mM MgCl2, 1 hour incubation, CellTiter-Glo luminescence, read-out: a4B7 cell capture assay RMPI8866-MadCAM EC50. In short, it runs like this: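 RPMI8866 cells (1.0×10^6 cells/mL) in 1 mM MgCl2, 25 mM HEPES, 50% human serum were added to plates coated with human MAdCAM-1–IgG1 Fc (1.0 μg/mL) and exposed to compound (9-point, 0.08–1000 nM, 0.1% DMSO) for 1 h at 37 °C. Bound cells were read by CellTiter-Glo luminescence. IC50 came from 4-parameter fit of normalized % inhibition.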
For `Cc1cc2cc(c1F)[C@H](CC(=O)O)NC(=O)[C@@H](n1cc(CCN3CC(F)C3)c(C(F)(F)F)cc1=O)c1cccc(c1)Oc1cccc(C)c1-2` (relative stereo) [Example 1, rel-2-((5S,8S)-1^4-fluoro-5-(5-(2-(3-fluoroazetidin-1-yl)ethyl)-2-oxo-4-(trifluoromethyl)pyridin-1(2H)-yl)-1^5,2^6-dimethyl-6-oxo-3-oxa-7-aza-1,4(1,3),2(1,2)-tribenzenacyclooctaphane-8-yl)acetic acid], the EC50 was found to be 59 nM.
The same measure for `Cc1cc2cc(c1F)[C@H](CC(=O)O)NC(=O)[C@@H](n1cc(CCN3CC(F)C3)c(C(F)(F)F)cc1=O)c1cc(ccc1F)Oc1cccc(C)c1-2` (relative stereo) [Example 7, [(14R*,17S)-12,19-difluoro-14-{5-[2-(3-fluoroazetidin-1-yl)ethyl]-2-oxo-4-(trifluoromethyl)pyridin-1-yl}-3,20-dimethyl-15-oxo-8-oxa-16-azatetracyclo[16.3.1.1^{9,13}.0^{2,7}]tricosa-1(21),2(7),3,5,9(23),10,12,18(22),19-nonaen-17-yl]acetic acid]: 1.1 nM; for `Cc1cc(C2CC2)cc2c1-c1cc(c(F)c(C(F)(F)F)c1)[C@H](CC(=O)O)NC(=O)[C@@H](n1cc(CCN3CC(F)C3)c(C(F)(F)F)cc1=O)c1cccc(c1)O2` (relative stereo) [Example 10, [(14R*,17S)-5-cyclopropyl-19-fluoro-14-{5-[2-(3-fluoroazetidin-1-yl)ethyl]-2-oxo-4-(trifluoromethyl)pyridin-1-yl}-3-methyl-15-oxo-20-(trifluoromethyl)-8-oxa-16-azatetracyclo[16.3.1.1^{9,13}.0^{2,7}]tricosa-1(21),2(7),3,5,9,11,13(23),18(22),19-nonaen-17-yl]acetic acid]: 360 nM; for `Cc1cccc2c1-c1cc(c(F)c(C(F)(F)F)c1)[C@H](CC(=O)O)NC(=O)[C@@H](n1cc(CCN3CC(F)C3)c(C(F)(F)F)cc1=O)c1cc(Cl)cc(c1)O2` (relative stereo) [Example 15, [(14R*,17S)-11-chloro-19-fluoro-14-{5-[2-(3-fluoroazetidin-1-yl)ethyl]-2-oxo-4-(trifluoromethyl)pyridin-1-yl}-3-methyl-15-oxo-20-(trifluoromethyl)-8-oxa-16-azatetracyclo[16.3.1.1^{9,13}.0^{2,7}]tricosa-1(22),2(7),3,5,9,11,13(23),18,20-nonaen-17-yl]acetic acid]: 28 nM.
The same measure for `Cc1cc(C)c2c(c1)Oc1cccc(c1)[C@H](n1cc(CCCN(C)C)c(C(F)(F)F)cc1=O)C(=O)N[C@@H](CC(=O)O)c1cn-2nc1C(F)(F)F` (relative stereo) [Example 18, [(13S,16R*)-16-{5-[3-(dimethylamino)propyl]-2-oxo-4-(trifluoromethyl)pyridin-1-yl}-5,7-dimethyl-15-oxo-11-(trifluoromethyl)-2-oxa-9,10,14-triazatetracyclo[15.3.1.1^{9,12}.0^{3,8}]docosa-1(20),3(8),4,6,10,12(22),17(21),18-octaen-13-yl]acetic acid]: 9.2 nM; for `Cc1cc2cc(c1F)[C@H](CC(=O)O)NC(=O)[C@@H](n1cc(CCN3CC(F)C3)c(C(F)(F)F)cc1=O)c1cc(Cl)cc(c1)Oc1cccc(C)c1-2` (single isomer, unassigned) [Example 3]: 12 nM; for `Cc1cc(Cl)cc2c1-c1cc(c(F)c(C(F)(F)F)c1)[C@H](CC(=O)O)NC(=O)[C@@H](n1cc(CCN3CC(F)C3)c(C(F)(F)F)cc1=O)c1cccc(c1)O2` (single isomer, unassigned) [Example 11]: 340 nM.
